This data set is described as follows: gradient 5% acetonitrile 3 min, to 50% in 2 min, to 85% in 15 min, held 3 min, 100 µL/min. As to conditions: column: Zorbax Extend-C18 2.1 x 50 mm; eluents: water / acetonitrile, 0.1% formic acid. In a few lines:
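Pure standards were run in mixtures of ~100 molecules by HPLC coupled to a quadrupole time-of-flight mass spectrometer. The column was a Zorbax Extend-C18 (2.1 × 50 mm, 1.8 μm) at 100 μL/min, with water and acetonitrile each containing 0.1% formic acid, in positive and negative ionization mode. Dead and dwell volumes were 40 μL and 900 μL. Retention time was taken from computationally picked adduct peaks, each manually inspected, with data collected over 3 months.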
Compound `CC(C)c1ccc(NC(=O)Cn2nc3n(c2=O)CCCCC3)cc1` yielded an RP-LC retention time of 779 s.

In turn, `CCCCOc1ccc(S(=O)(=O)N2CCN(c3cc(C)nc(NC4CCCCC4)n3)CC2)cc1` yielded an RP-LC retention time of 996 s.

Compound `Cc1nn2c(CNS(=O)(=O)Cc3ccccc3)c(-c3ccccc3)nc2s1` came in with an RP-LC retention time of 876 s.

For the compound `COc1ccc(C2Cn3nnc(-c4nc(-c5cccc(F)c5)no4)c3CO2)cc1` (configuration not stated), the RP-LC retention time came to 1100 s.

`O=C([C@@H]1C[C@H](Oc2ccccc2)CN1C1CCOCC1)N1CCc2ccccc21`: the RP-LC retention time is 709 s.

`O=c1n(Cc2ccc(Cl)cc2)nc2c(S(=O)(=O)N3CCCCCC3)cccn12`: the RP-LC retention time amounted to 991 s.

Compound `Cc1cc(NC(=O)CSc2nnc(-c3c(C)nc4sccn34)n2C)no1` returned an RP-LC retention time of 588 s.

With `CCc1cc(-c2csc(S(=O)(=O)N3CCN(c4ccc(Cl)cc4)CC3)c2)on1`, the RP-LC retention time is 1200 s.

In the case of `O=c1ccc(N2CCC(NS(=O)(=O)c3ccc(Cl)s3)CC2)nn1CC1CC1`, the RP-LC retention time stood at 875 s.

As to `O=C(C1CCCN(c2ccc(-c3ccccc3)nn2)C1)N1CCN(c2ccccc2)CC1` (configuration not stated), the RP-LC retention time turned out to be 783 s.

On to `CCOC1CCN(C(=O)NC(C)C)CC1`, for which the RP-LC retention time is 630 s.

For the compound `Cc1ccc2[nH]c(=O)c(CCC(=O)NCCc3ccccn3)cc2c1`, the RP-LC retention time was found to be 577 s.

Consider `CCS(=O)(=O)N1CC(=O)N(c2cccc(Cl)c2)C(C)(C(=O)NC2CCCCCC2)C1` (configuration not stated), for which the RP-LC retention time was determined as 895 s.

Regarding `CN1CCc2[nH]cnc2C12CCN(C(=O)Nc1ccc(Cl)cc1F)C2` (configuration not stated), the RP-LC retention time is 567 s.

Compound `CCN1CCN(Cc2ccc(C(=O)N3CCN(c4ccc(C)cc4)CC3)cc2)C(=O)C1=O` came in with an RP-LC retention time of 694 s.

In the case of `CCCC(=O)NCCn1c(=O)n(Cc2ccccc2)c2cccnc21`, the RP-LC retention time was found to be 718 s.

In turn, `Cc1ccc(CNC(=O)Cn2ncc3c(c2=O)N(C2CC2)C(=O)CS3)cc1C` yielded an RP-LC retention time of 757 s.

As for `Cc1ccc(N2C(=O)CN(S(C)(=O)=O)CC2(C)C(=O)NCc2ccc(Cl)cc2)cc1C` (configuration not stated), the RP-LC retention time is 874 s.

With `COc1ccc(CNC(=O)NCC2CCN(S(=O)(=O)C3CC3)CC2)cc1`, the RP-LC retention time stood at 662 s.

`CCOC(=O)c1ccc(NC(=O)N2CCCC2c2cc(C)no2)cc1` (configuration not stated) yielded an RP-LC retention time of 809 s.

Consider `COC(=O)C1=CN(C2CC2)c2cc(N3CCN(c4ccccc4OC)CC3)c(F)cc2S1(=O)=O`, for which the RP-LC retention time turned out to be 904 s.

Turning to `Cc1cccc(-c2nc3ccccn3c2NC(=O)Nc2ccccc2F)c1`, the RP-LC retention time amounted to 695 s.

Take `CC1CCCN(c2nn(CC(=O)Nc3ccccc3Cl)c(=O)c3ccccc23)C1` (configuration not stated): the RP-LC retention time stood at 1180 s.

For `Cc1noc(C)c1CC(=O)N1CCCn2cc(-c3ccccc3F)nc21`, the RP-LC retention time was 710 s.

Regarding `Cc1ccsc1C(=O)Nc1ccc2c(N3CCCCC3)ncnc2c1`, the RP-LC retention time amounted to 686 s.

On to `CCNc1cc(N2CCCC(CCC(=O)NCCc3cccs3)C2)ncn1` (configuration not stated), for which the RP-LC retention time came out at 639 s.

The compound `Cc1oc(-c2ccc(C(=O)NCCN3CCOCC3)cc2)nc1CN1CCc2ccccc21` displayed an RP-LC retention time of 690 s.

Turning to `O=C(Cc1c(F)cccc1Cl)N1C[C@@H]2C[C@H]1C[C@@H]2NS(=O)(=O)c1cccs1`, the RP-LC retention time is 766 s.

As for `COC(=O)c1cccc(C(=O)N2CCN(c3cc(Cl)ccc3C)CC2)n1`, the RP-LC retention time turned out to be 946 s.

`CCc1nc(-c2csc(S(=O)(=O)N3CCCC(C(=O)NCc4cccs4)C3)c2)no1` (configuration not stated) gave an RP-LC retention time of 952 s.

In turn, `COc1cccc(CN2N=C(C(=O)N3CCOCC3)S(=O)(=O)c3ccccc32)c1` had an RP-LC retention time of 800 s.

`O=c1n(Cc2ccccc2)nc2c(-c3nc(-c4ccccc4)no3)cccn12` registered an RP-LC retention time of 984 s.

For the origin of these results see the METLIN SMRT retention time set (Domingo-Almenara et al. 2019).
